For assay [1], the system named is small cell lung cancer cell line H446. Briefly: MTT proliferation, small cell lung cancer cell line H446. It is filed as cell-based. The following applies: MTT, 72 hours, H446; read-out: IC50 (μM) of compounds in small cell lung cancer cells, H446. The method, then:
(§1) The method for determining inhibitory activities of the compounds on the proliferation of tumor cells by an MTT method is as follows: a bottle of cells in a good state in an exponential growth phase is added with 0.25% trypsin digestive juice, the digestion makes adherent cells fall off, with 2 to 4×10^4 cells/mL, and a cell suspension is prepared. The cell suspension is inoculated on a 96-well plate, with 90 μL/well, and cultured in a constant-temperature CO2 incubator for 24 hours. The prepared compounds are added for testing, with 10 μL/well, and cultured for 72 hours. An MTT reagent is added into a 96-well plate, with 10 μL/well, and reacts in an incubator for 4 hours to absorb a supernatant, and then dimethyl sulfoxide is added, with 100 μL/well. After a crystal is dissolved, an absorbance of each well at a wavelength of 570 nm is measured by an enzyme-linked immunosorbent assay instrument, and a cell inhibition rate is calculated. An S curve is made with a compound concentration and a corresponding inhibition rate. Therefore, IC50 of a corresponding compound is obtained.
(§2) Anti-tumor dose-effect relationship curves of cordycepin and compounds 1, 2, 4, 5, 7, 8, 10, 12, 16, 18, 21, 23, 24, 35 and 38 in small cell lung cancer cell lines H1048, H446 and H69 were analyzed by an MTT experimental method.

Assay [2] concerns small cell lung cancer cell line H1048. Briefly: MTT proliferation, small cell lung cancer cell line H1048. It is filed as cell-based. The following applies: MTT, 72 hours, H1048; read-out: IC50 (μM) of compounds in small cell lung cancer cells, H1048. The method, then: as §1, §2
A further assay deals with MC-38 colon cancer cells. Briefly: Mouse transplanted colon cancer model. In kind it is in vivo, C57BL/6j nude mice. The following applies: MC-38 transplanted mice, 28 days, 500 ug/time/animal intragastric (compound daily, antibody every 4 days); control 1,300 mm^3. The method, then:
(§3) The feeding of the mouse model in the drug evaluation follows that: mice are fed and treated in a laminar flow cabinet, with 5 nude mice in each cage, drinking water and feedstuffs are added once every 3 days, and paddings are replaced once a week; a number of mice kept in each cage is no more than 5, the mice in separate cages are kept in groups as far as possible, and the mice should not be kept in a single cage; the animal management must conform to the relevant national standards on animal feeding management, and the behavioral needs of animals should be concerned at the same time to avoid unnecessary stress; the normal physiological and behavioral needs of animals, such as defecation, urination, constant body temperature maintenance, normal activities, posture adjustment and reproduction are met; good ventilation and dry animals are kept; the animals can access to drinking water and food at will, and supplementation, replacement and cleaning operations are easily carried out; a solid and safe environment is provided to avoid accidents of animals, such as escaping or limb trapping in a gap; the animals are avoided from being damaged by sharp edges or protrusions; and the animals are not disturbed during observation.
A mouse transplanted colon cancer model was established and a drug was evaluated. […]

Assay [3] deals with small cell lung cancer cell line H69. The experiment in a line: MTT proliferation, small cell lung cancer cell line H69. In kind it is cell-based. The following applies: MTT, 72 hours, H69; read-out: IC50 (μM) of compounds in small cell lung cancer cells, H69. The protocol: as §1, §2
Assay [4] relates to gastric cancer cell line BGC-823. Briefly: MTT proliferation, gastric cancer cell line BGC-823. It is filed as cell-based. The following applies: read-out: IC50 (μM) in gastric cancer cells, BGC-823. The method, then:
as §1
(§4) Anti-tumor dose-effect relationship curves of the cordycepin and 40 compounds prepared in gastric cancer cell lines AGS and BGC-823 were analyzed by an MTT experimental method.

Assay [5] relates to gastric cancer cell line AGS. Briefly: MTT proliferation, gastric cancer cell line AGS. It is filed as cell-based. The following applies: read-out: IC50 (μM) in gastric cancer cells, AGS. The method, then: as §1, §4
The next assay deals with B16-F10 melanoma cells. The experiment in a line: Mouse transplanted melanoma model. It is filed as in vivo, C57BL/6j nude mice. The following applies: B16-F10 transplanted mice. The protocol:
as §3
A mouse transplanted melanoma model was established and a drug was evaluated. 2.5×10^5 B16-F10 melanoma cells were suspended in 100 μL of PBS to be inoculated into an outer side of thigh of left lower limb of C57BL/6j nude mice. One week later, when the transplanted tumor reached about 100 mm^3, the mice were randomly divided into ten groups, with 10 mice in each group, comprising a blank control group, a cordycepin group, a compound 13 group, a compound 14 group, a compound 17 group, a compound 19 group, a compound 22 group, a compound 26 group, a compound 29 group and a compound 34 group respectively. The blank control group was intragastrically administrated with a nutritional agent such as a corn steep liquor and DMSO as a solvent control every day for 24 consecutive days, and the compound groups were intragastrically administrated with corresponding compounds (500 ug/time/animal in all cases) every other day for 24 consecutive days. […] The mice were killed after the experiment, blood and corresponding tissue samples were collected, tumor bodies were immediately photographed and weighed, and some tumor tissues were fixed in a formalin solution to be further detected. Two vertical diameters (length and width) of the transplanted tumor were measured with a caliper every two days to calculate a size of the transplanted tumor, and a tumor value was calculated according to a formula: tumor volume (mm^3)=[…].

Counter-ions that a name gives are not always drawn. Like-named read-outs stand apart in the source and are kept apart here.

Consider `CC(C)OC(=O)[C@H](C)NP(=O)(COCC1CC(C#N)C(n2cnc3c(N)ncnc32)O1)Oc1ccccc1` (stereo partly drawn) [Compound 16], for which the IC50 in assay [1] turned out to be 19.1 µM; in assay [2] it was 25.5 µM; in assay [3], 23.3 µM; in assay [4] (MTT, 72 hours, BGC-823), 0.19 µM; in assay [5] (MTT, 72 hours, AGS), 0.14 µM. The tumor size in the assay with MC-38 colon cancer cells turned out to be 480 mm^3.

As for `CC(C)OC(=O)C(C)NP(=O)(COC[C@H]1O[C@@H](n2cnc3c(N)ncnc32)C(O)[C@H]1N=[N+]=[N-])Oc1ccccc1` (stereo partly drawn) [Compound 27, isopropyl((((5-(6-amino-9H-purine-9-yl)-3-azide-4-hydroxytetrahydrofuran-2-yl)methoxy)methyl)(phenoxy)phosphoryl)alanine ester], the “inhibition of melanoma” value in the assay with B16-F10 melanoma cells (same method as Embodiment 46) is given as “the Same Inhibition Effect as a Compound 26”. The IC50 in assay [4] (Homo sapiens, BGC-823, 72 h) was 10.2 µM; in assay [5] (72 h) it was 8.42 µM.

For the molecule `COC(=O)C(C)NP(=O)(Oc1ccccc1)OC1C[C@@H](CO)O[C@H]1n1cnc2c(NC(=O)c3ccncc3)ncnc21` (stereo partly drawn) [Compound 34, methyl(((5-(hydroxymethyl)-2-(6-(isonicotinamide)-9H-purin-9-yl)tetrahydrofuran-3-yl)oxy)(phenoxy)phosphoryl)alanine salt], the tumor volume entry with B16-F10 melanoma cells (intragastric 500 ug/time/animal every other day, 24 days, blank 1760 mm^3) is reported as “about 240 mm^3”. In addition, the IC50 in assay [4] (Homo sapiens, MTT, 72 hours, BGC-823) was determined as 24.2 µM; in assay [5] (MTT, 72 hours, AGS) it was 19.4 µM.

A word on the IC50: it is the concentration that inhibits the measured activity by half.

For the origin of these results see patent US12215123B2, “Cordycepin-based derivatized compound with anti-tumor effect” (NANJING TECH UNIVERSITY, priority 2022, dated 2025).
